Data reported in PubChem BioAssay (NCI).
Values joined by “and” are separate entries in the source; they are usually repeats but may differ in a detail not shown here. Identical values can stand only once.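 96-well plates; 48 h exposure; 5 concentrations. Endpoints by linear interpolation between flanking doses. Not reached: highest tested concentration assigned. GI50 = concentration required for 50% inhibition of growth. Definition used: TGI = concentration required for complete inhibition of growth.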

Tested on: MDA-MB-468 breast
Assay: growth of human tumour cells (NCI), 48 h

SMILES	GI50	TGI
Nc1nccc2c1ccn2-c1cccc(NC(=O)c2ccc(N3CCOCC3)c(C(F)(F)F)c2)c1	0.331 µM	3.19 µM
COc1ccc(C(=O)/C=C/c2cc(-c3ccc4c(c3)OCO4)n[nH]2)cc1OC	1.86 µM	4.52 µM
COc1cc(-c2nc3cc(Cl)c(Cl)cc3[nH]2)ccc1OCC(=O)N=Nc1c(O)[nH]c2ccc(Cl)cc12	0.256 µM	0.697 µM
CCOC(=O)c1ccc(N(C=O)CCC(=O)CCl)cc1	0.382 µM	2.13 µM
COc1ccc(-c2nnc(SCC(=O)Nc3ccc(C(=O)/C=C/c4cc(OC)c(OC)c(OC)c4)cc3)n2-c2ccccc2)cc1OC	4.61 µM	> 10 µM
O=C(c1nn(-c2ccc(Cl)cc2)cc1O)n1nc(C(F)(F)F)cc1-c1ccccc1	4.5 µM	> 100 µM
O=C(O)c1cn(C2CC2)c2cc(N3CCNCC3)c(F)cc2c1=O	> 100 µM	> 100 µM
O=C1CC(c2ccsc2)c2snc(-c3ccc(Cl)cc3)c2N1 (stereo not drawn)	0.291 µM	1.72 µM
Clc1ccc2nc(Cl)c3ccccc3c2c1	10.5 µM	38.7 µM
CC[C@H](C)[C@H]1NC(=O)[C@@H]([C@H](O)C(C)C)NC(=O)[C@@H](C)N(C)C(=O)[C@H](C)N(C)C(=O)[C@H](CC(C)C)NC(=O)[C@H](CC(C)C)N(C)C(=O)[C@H](C)N(C)C1=O	0.536 µM	10.5 µM
COc1cnc2c(c1)C(=O)c1c-2n(CCCNCCN2CCOCC2)c(=O)c2cc([N+](=O)[O-])ccc12	0.124 µM	0.605 µM
CCSc1ccc([C@@H]2[C@@H](N)C(=O)N2c2cc(OC)c(OC)c(OC)c2)cc1	0.0775 µM	> 100 µM
Fc1ccc([C@@H]2CCNC[C@H]2COc2ccc3c(c2)OCO3)cc1	5.33 µM	21 µM
O=c1[nH]c(Sc2sc3ccc(Cl)cc3c2CBr)nc(=S)[nH]1	> 68.8 µM	> 100 µM
COc1cc(-c2nc(-c3ccc(-c4nc5ccc(F)cc5[nH]4)cc3)no2)cc(OC)c1OC	3.01 µM	17.5 µM
COc1ccc(-c2nc(-c3ccccn3)c(-c3ccccn3)n2CC(C)C)cc1OC1CCCC1	38.4 µM	136 µM
CCN(CC)CCOc1ccc(C(=C(c2ccccc2)C2CCCC2)c2ccc(OCCN(CC)CC)cc2)cc1	2.3 µM	5.51 µM
O=C(NO)c1ccc(Cn2c(=O)n(-c3ccccc3)c(=O)c3ccccc32)cc1	0.542 µM	2.23 µM
CCOC(=O)Cn1c(-c2nonc2NC(=O)c2ccccc2F)nc2ccccc21	21.8 µM	> 100 µM
NC(=O)c1sc(-n2cnc3ccc(C(F)(F)F)cc32)cc1OCc1ccccc1Br	0.349 µM	0.977 µM
COc1cc(/C(=C2/O[C@@H]([C@H]3COC(C)(C)O3)[C@H]3OC(C)(C)O[C@@H]23)c2ccc3c(c2)OCO3)cc(OC)c1OC	7.93 µM	> 25 µM
CN(C)c1ccc(Nc2c3ccccc3nc3cc(NC(=O)CCN4CCCC4)ccc23)cc1	0.29 µM	1.13 µM
C#C[C@]1(O)CC[C@H]2[C@@H]3CC=C4c5sc(NCc6ccccc6)nc5CC[C@]4(C)[C@H]3CC[C@@]21C	4.4 µM	18.3 µM
O=C(Nc1ccc(Nc2ccncc2)cc1)c1ccc(Nc2ccnc3ccc([N+](=O)[O-])cc23)cc1[N+](=O)[O-]	1.75 µM	18.3 µM
Oc1ccc(Oc2cnc3cc(Cl)ccc3n2)cc1	26.3 µM	> 100 µM

SMILES	GI50	TGI
c1ccc2cc(C[n+]3ccn(Cc4ccc5ccccc5n4)c3)ccc2c1	0.0807 µM and 0.611 µM	0.496 µM and 4.14 µM
O=C1/C(=C/c2ccc(Cl)cc2)CN(C(=O)CCN2CCC(=NO)CC2)C/C1=C\c1ccc(Cl)cc1	0.833 µM	2.51 µM
Cc1cc(NCc2cc(Nc3ccnc4cc(Cl)ccc34)ccc2F)nc(N2CCSCC2)n1	1.92 µM	4.77 µM
CCOC(=O)c1ccccc1SC(C[N+](=O)[O-])c1ccccc1 (stereo not drawn)	1.71 µM	4.06 µM
O=C(Nc1ccc(Oc2ccc(NC(=O)Nc3ccc([N+](=O)[O-])cc3)cc2)cc1)Nc1ccc([N+](=O)[O-])cc1	1.56 µM	14.1 µM
CCCCCCCCCCC[C@@H](C[C@H]1OC(=O)[C@H]1CCCCCC)OC(=O)[C@@H](CC(C)C)NC=O	14.1 µM	48.3 µM
COc1ccc2c(c1)[nH]c(=O)c1c3cc(OC)c(OC)cc3cn21	0.0208 µM	0.0492 µM
CNC(=O)c1cc(Oc2ccc3nc(N[C@@H]4CCCC[C@H]4O)sc3c2)ccn1	23.7 µM	> 89.7 µM
COc1ccc(C2=N[C@@H](c3ccc(Cl)cc3)[C@@H](c3ccc(Cl)cc3)N2C(=O)N2CCNC(=O)C2)c(OC(C)C)c1	12.2 µM and 11.5 µM and 12.7 µM	25.2 µM and 24.5 µM and 26.6 µM
CCCCCCCCCCCC1=NC(C)(C)CN1CC(C)O (stereo not drawn)	2.11 µM	10.9 µM
CCCCCCCCNC(C)C(O)c1ccc(SC(C)C)cc1 (stereo not drawn)	1.57 µM	3.24 µM
OCCn1cc(-c2cnc3nnn(Cc4ccc5ncccc5c4)c3n2)cn1	98.8 µM	> 100 µM
Cc1ccc(-c2cc(-c3ccc(C)cc3)nc(N3CCN(CCNc4ccnc5cc(Cl)ccc45)CC3)n2)cc1	1.74 µM	8.3 µM
CC(C)=CC(=O)N[C@@H]1CC2CCC3C(CC[C@@]4(C)C3CC[C@@H]4C(C)N(C)C)[C@@]2(C)C[C@@H]1O (stereo partly drawn)	1.54 µM	8.98 µM
O=C(CCN1CCCC1)Nc1ccc2c(NCCc3ccccc3)c3ccccc3nc2c1	0.284 µM	1.04 µM
O=C1NC(=O)[C@@H](c2c[nH]c3ccccc23)[C@@H]1c1c[nH]c2ccccc12	> 25 µM	> 25 µM
CC[C@H](C)[C@H](NC(=O)NC(C)(C)C)C(=O)N(C)[C@H](C[C@@H](OC(C)=O)c1nc(C(=O)N[C@@H](Cc2ccccc2)C[C@H](C)C(=O)OC)cs1)C(C)C	0.0797 µM	0.441 µM
C[C@@H](Oc1cc(-n2cnc3ccc(OCC4CCN(C)CC4)cc32)sc1C(N)=O)c1ccccc1Cl	0.0093 µM	0.22 µM
CN1CCN(c2ccc3nc(-c4[nH]ncc4Nc4ncnc5c4OCCCN5)[nH]c3c2)CC1	< 0.01 µM	0.0211 µM
C=C(C)[C@@H]1CC[C@]2(C(=O)O)CC[C@]3(C)[C@H](CC[C@@H]4[C@@]5(C)C/C(=C/c6cccc(I)c6)C(=O)C(C)(C)[C@@H]5CC[C@]43C)[C@@H]12	2.45 µM	11.1 µM
COc1cc(C(=O)O/N=C(\N)Cc2cccc3ccccc23)cc(OC)c1OC	15.7 µM	33.2 µM
O=c1c2c(=NCCN3CCCC3)cc3c(=O)n(CCCN4CCOCC4)c(=O)c4ccc(c(O)n1CCCN1CCOCC1)c2c4-3	0.109 µM	0.335 µM
COc1ccc(/C=N\NC(=O)c2ccc3nc(-c4ccc(Cl)cc4)[nH]c3c2)cc1	1.94 µM	4.55 µM
COC1C(CO)OC(n2c3c(Cl)cccc3c3c4c(c5c6cccc(Cl)c6[nH]c5c32)C(=O)NC4=O)C(O)C1O (stereo not drawn)	0.0743 µM	0.352 µM
